Test results: patent US20250235462A1, “NOVEL CAPSID ASSEMBLY INHIBITORS” (AM SCIENCES INC, priority 2021, published 2025)
Read-outs that look alike come from different tables or passages of the source.

What was measured:
intracellular HBV DNA = assay: Real-time PCR for intracellular HBV DNA in HepAD38 cells; assay type: cell-based, hepatitis B virus (HBV); conditions: treated for 65 hours, intracellular HBV DNA by real-time PCR
Description: HepAD38 cells were cultured in DMEM medium (Welgene) supplemented with 200 unit/mL penicillin, 200 μg/mL streptomycin, and 10% FBS. During maintenance and passage, the cells were cultured together with 0.4 μg/mL tetracycline. Two days before the treatment with compounds for inducing HBV replication was started, the medium was replaced with a tetracycline-free complete growth medium. […]
HepAD38 cells were treated with a compound for 65 hours and then recovered, and intracellular HBV DNA was extracted therefrom according to the protocol in the DNeasy Blood & Tissue Kit (Qiagen). The primers and probes used to quantify HBV DNA were 5′-[…]-3′, 5′-[…]-3′, and 5′-/56-FAM/TGT CCT GGT/ZEN/[…]/3IABKFQ/-3′. The HBV DNA was amplified by real-time PCR assay using LightCycler 480 (Roche) (J. Virol., 2018, 92(16):e00339-18). All of the processes were confirmed in duplicate.

[1] = biological target: Protein (capsid assembly) (Hepatitis B virus genotype D subtype ayw, UniProt P03146); assay: Protein inhibition (capsid assembly inhibition), Table 1; assay type: biochemical; conditions: for EC50: NVR value of the same run in brackets, read-out: Protein EC50
HepAD38 cells = assay: Cell viability assay (EZ-Cytox) in HepAD38 cells; assay type: cell-based; conditions: 65 hours of treatment
Description: (§1) HepAD38 cells were cultured for 2 days in Dulbecco's Modified Eagle's medium (Welgene, LM001-05) supplemented with 10% FBS without tetracycline. The cells were seeded in 48-well culture plates (1×10^5 cells/well) and treated with each compound at five concentrations (0 μM (0.8% DMSO as a control), 33 μM, 50 μM, 66 μM, and 100 μM). After 65 hours of treatment, viability was measured using EZ-Cytox cell viability assay kit (Daeil Lab Service) according to the manufacturer's instructions. The absorbance was measured at 450 nm using a spectrophotometer (Spark, Tecan). Here, NVR-3-778 (denoted as NVR) was used as a positive control.

[2] = Cell viability assay (EZ-Cytox) in HepAD38 cells; assay type: cell-based; conditions: human, 65 hours of treatment; for CC50 at 65 h: read-out: Cytotoxicity CC50; for viability at 65 h, 100 µM: read-out: Cytotoxicity % Livability (@100 μM)
Description: as §1

[3] = Hepatitis B virus, HePAD38, 65 h
[4] = @30 μM, read-out: Protein % inhibition rate (@30 μM)

Sequence of Protein (capsid assembly) (P03146 whole entry): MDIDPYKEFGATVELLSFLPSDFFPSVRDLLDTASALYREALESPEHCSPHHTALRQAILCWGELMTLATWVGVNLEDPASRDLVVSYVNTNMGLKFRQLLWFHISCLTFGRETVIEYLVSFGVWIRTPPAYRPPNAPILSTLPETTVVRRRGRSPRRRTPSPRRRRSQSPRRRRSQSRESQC

Row | Structure (SMILES) | IC50 (intracellular HBV DNA) | Protein % inhibition rate (@30 μM) ([1]; @30 μM) | EC50 [1] | CC50 (HepAD38 cells; read-out: Cytotoxicity CC50) | IC50 (intracellular HBV DNA; [3]) | inhibition at 30 µM [1, 4] | CC50 at 65 h [2] | inhibition at 30 µM ([1]; read-out: Protein % inhibition rate (@30 μM), @30 μM) | viability at 65 h, 100 µM [2] | Cytotoxicity % Livability (@100 μM) (HepAD38 cells; @100 μM)
1 | O=C(Nc1ccc(F)c(Cl)c1)N(Cc1nnc2n1CCOC2)c1ccc2c(c1)OCO2 [Example 4, 1-(Benzo[d][1,3]dioxol-5-yl)-3-(3-chloro-4-fluorophenyl)-1-((6,8-dihydro-5H-[1,2,4]triazolo[3,4-c][1,4]oxazin-3-yl)methyl)urea] | 250 nM | 84% | 6800 nM | > 100000 nM | – | – | – | – | – | –
2 | COc1ccc(N(Cc2nnc(-c3ccccc3)n2C)C(=O)Nc2ccc(F)c(Cl)c2)cc1 [Example 24, 3-(3-Chloro-4-fluorophenyl)-1-(4-methoxyphenyl)-1-((4-methyl-5-phenyl-4H-1,2,4-triazol-3-yl)methyl)urea] | – | – | – | – | > 3300 nM | -1% | > 100000 nM | – | – | –
3 | COc1ccc(N(Cc2nnc(C)n2C(C)C)C(=O)Nc2ccc(F)c(Cl)c2)cc1 [Example 26, 3-(3-Chloro-4-fluorophenyl)-1-((4-isopropyl-5-methyl-4H-1,2,4-triazol-3-yl)methyl)-1-(4-methoxyphenyl)urea] | – | – | 6200 nM | – | 184 nM | – | > 100000 nM | 2% | 91.5% | –
4 | COc1ccc(N(Cc2nnc3n2CCOCC3)C(=O)Nc2ccc(F)c(Cl)c2)cc1 [Example 27, 3-(3-Chloro-4-fluorophenyl)-1-(4-methoxyphenyl)-1-((5,6,8,9-tetrahydro-[1,2,4]triazolo[4,3-d][1,4]oxazepin-3-yl)methyl)urea] | – | – | 2300 nM | – | 32 nM | 65% | > 100000 nM | – | 91% | –
5 | CC(c1nnc2n1CCOCC2)N(C(=O)Nc1ccc(F)c(Cl)c1)c1ccc2c(c1)OCO2 (centres unmarked) [Example 33, 1-(Benzo[d][1,3]dioxol-5-yl)-3-(3-chloro-4-fluorophenyl)-1-(1-(5,6,8,9-tetrahydro-[1,2,4]triazolo[4,3-d][1,4]oxazepin-3-yl)ethyl)urea] | – | – | 4300 nM | – | 360 nM | 26% | > 100000 nM | – | 88.3% | –
6 | O=C(Nc1ccc(F)c(Cl)c1)N(Cc1nnc2n1CCCCC2)c1ccon1 [Example 36, 3-(3-Chloro-4-fluorophenyl)-1-(isoxazol-3-yl)-1-((6,7,8,9-tetrahydro-5H-[1,2,4]triazolo[4,3-a]azepin-3-yl)methyl)urea] | – | – | 1500 nM | – | 400 nM | 77.6% | > 100000 nM | – | 90.4% | –
7 | COc1ccc(N(Cc2nnc3n2CCOCC3)C(=O)Nc2ccc(F)c(Cl)c2)cn1 [Example 40, 3-(3-Chloro-4-fluorophenyl)-1-(6-methoxypyridin-3-yl)-1-((5,6,8,9-tetrahydro-[1,2,4]triazolo[4,3-d][1,4]oxazepin-3-yl)methyl)urea] | – | – | 1500 nM | – | 84 nM | 82.8% | > 100000 nM | – | 88.6% | 100.3%
8 | O=C(Nc1cccc(Cl)c1)N(Cc1nnc2n1CCCC2)c1ccc2c(c1)OCO2 [Example 41, 1-(Benzo[d][1,3]dioxol-5-yl)-3-(3-chlorophenyl)-1-((5,6,7,8-tetrahydro-[1,2,4]triazolo[4,3-a]pyridin-3-yl)methyl)urea] | – | – | 2900 nM | – | 230 nM | 59% | > 100000 nM | – | 97.1% | –
9 | O=C(Nc1ccc(F)c(Cl)c1)N(Cc1nnc2n1CCOC2)c1ccc2c(c1)OCO2 [Example 42, 1-(Benzo[d][1,3]dioxol-5-yl)-3-(3-chloro-4-fluorophenyl)-1-((6,8-dihydro-5H-[1,2,4]triazolo[3,4-c][1,4]oxazin-3-yl)methyl)urea] | – | 20% | 6800 nM | – | 210 nM | – | > 100000 nM | – | 83.7% | –
10 | COc1ccc(N(Cc2nnc3n2CCCC3)C(=O)Nc2ccc(F)c(Cl)c2)cc1 [Example 43, 3-(3-Chloro-4-fluorophenyl)-1-(4-methoxyphenyl)-1-((5,6,7,8-tetrahydro-[1,2,4]triazolo[4,3-a]pyridin-3-yl)methyl)urea] | – | – | 3300 nM | – | 790 nM | 96.2% | > 100000 nM | – | 103% | –
11 | COc1ccc(N(Cc2nnc3n2CCCCC3)C(=O)Nc2ccc(F)c(Cl)c2)cn1 [Example 44, 3-(3-Chloro-4-fluorophenyl)-1-(6-methoxypyridin-3-yl)-1-((6,7,8,9-tetrahydro-5H-[1,2,4]triazolo[4,3-a]azepin-3-yl)methyl)urea] | – | – | 1400 nM | – | 50 nM | 82% | > 100000 nM | – | 103% | –
